Reference: patent publication US20180169021A1, “RANOLAZINE MULTIPLE COMPRESSED TABLETS” (INTERQUIM, S.A., priority 2015, published 2018)
≈ marks a conversion by molar mass, not a printed value. Like-named read-outs stand apart in the source and are kept apart here.

Columns and labels:
[1] = quoted from WO0166093 A2; cited from earlier work
[2] = cited from earlier work
[3] = Dissolution in time of 500 mg ranolazine compressed into tablets, 900 mL aqueous media, paddle 100 rpm (FIG. 1); type: physicochemical; conditions: 100% ranolazine tablet
Description: As shown in the previous table, ranolazine is much more soluble at acidic pH than in neutral or basic pH.

COc1ccccc1OCC(O)CN1CCN(CC(=O)Nc2c(C)cccc2C)CC1 (centres unmarked) [Ranolazine, N-(2,6-dimethylphenyl)-2-(4-(2-hydroxy-3-(2-methoxyphenoxy)propyl)piperazin-1-yl)acetamide]
Plasma half-life [1]: relatively short | Solubility ([2]; Solution pH 4.81): 161000 µg/mL (≈ 377 mM) | USP Solubility Class ([2]; Solution pH 4.81): Freely Soluble | Solubility ([2]; Solution pH 4.89): 73800 µg/mL (≈ 173 mM) | USP Solubility Class ([2]; Solution pH 4.89): Soluble | Solubility ([2]; Solution pH 4.90): 76400 µg/mL (≈ 179 mM) | USP Solubility Class ([2]; Solution pH 4.90): Soluble | Solubility ([2]; Solution pH 5.04): 49400 µg/mL (≈ 116 mM) | USP Solubility Class ([2]; Solution pH 5.04): Soluble | Solubility ([2]; Solution pH 5.35): 16700 µg/mL (≈ 39.1 mM) | USP Solubility Class ([2]; Solution pH 5.35): Sparingly Soluble | Solubility ([2]; Solution pH 5.82): 5480 µg/mL (≈ 12.8 mM) | USP Solubility Class ([2]; Solution pH 5.82): Slightly soluble | Solubility ([2]; Solution pH 6.46): 1630 µg/mL (≈ 3.81 mM) | USP Solubility Class ([2]; Solution pH 6.46): Slightly soluble | Solubility ([2]; Solution pH 6.73): 830 µg/mL (≈ 1.94 mM) | USP Solubility Class ([2]; Solution pH 6.73): Very slightly soluble | Solubility ([2]; Solution pH 7.08): 390 µg/mL (≈ 0.912 mM) | USP Solubility Class ([2]; Solution pH 7.08): Very slightly soluble | Solubility ([2]; Solution pH 7.59*): 240 µg/mL (≈ 0.561 mM) | USP Solubility Class ([2]; Solution pH 7.59*): Very slightly soluble | Solubility ([2]; Solution pH 7.79): 170 µg/mL (≈ 0.398 mM) | USP Solubility Class ([2]; Solution pH 7.79): Very slightly soluble | Solubility ([2]; Solution pH 12.66): 180 µg/mL (≈ 0.421 mM) | USP Solubility Class ([2]; Solution pH 12.66): Very slightly soluble | Solubility ([2]; low pH that occurs in the stomach, quoted from WO0166093 A2): relatively high | Time until all the ranolazine is dissolved ([3]; pH 1 (0.1 M HCl)): less than 30 minutes | Ranolazine dissolved ([3]; pH 6.8, 30 minutes): around 63% | Extent of dissolution ([3]; pH 6.8, 12 hours): not yet fully dissolved
